Tests used:
YES1 kinase = YES1 kinase (Homo sapiens, UniProt P07947); assay: YES1 kinase inhibition, ADP Glo assay (Promega); type: biochemical; conditions: for inhibition at 0.01 µM: compound 10 nM, read-out: YES1 enzyme, % inhibition, 10 nM; for inhibition at 0.1 µM: compound 100 nM, read-out: YES1 enzyme, % inhibition, 100 nM
Protocol: To evaluate the inhibitory activity against YES1 kinase of the compound according to the present invention, ADP Glo assay (Promega) was used, and the following method was performed with reference to the Promega kinase enzyme system protocol. To proceed with the experiment, buffers A-F and compound dilution plates were required.
To prepare A.4X reaction buffer, 800 μl of 5X reaction buffer and 200 μl of distilled water were used. To prepare B.4X kinase buffer, 996.6 μl of A.4X reaction buffer, 2 μl of 0.1M DTT, and 3.2 μl of 2.5M MnCl2 were added and mixed. To prepare C.1X kinase buffer (containing 5% DMSO) used for compound dilution, 250 μl of B.4X kinase buffer, 700 μl of distilled water, and 50 μl of DMSO were added, so that the final DMSO concentration became 5%. Then, 10 mM compounds were diluted 100-fold to prepare 100 μM solutions, and then D.5X inhibitor solution was prepared so that the compound concentration became 5 uM. Using a 96-well plate, 5 μM compounds were 3-fold diluted using C.1X kinase buffer (containing 5% DMSO) to prepare compound plates with concentrations ranging from 0.25 μM to 5 μM. The resulting plates were stored at room temperature. To prepare E. 2.5X ATP/substrate mixture, 50 μl of B.4X kinase buffer, 50 μl of […], and 100 μl of substrate were mixed. To prepare F YES1 kinase enzyme solution, 35 μl of B.4X kinase buffer, 0.4 μl of YES1 enzyme, and 104.6 μl of distilled water were used. Once the diluted compound plates, ATP/substrate mixture, and YES1 kinase solution were all prepared, 3 μL each was transferred from the diluted compound plate to a luciferase 96-well white plate (Since the total volume of the ATP/substrate and YES1 kinase solution that reacts with the compound is 15 μL, the compounds were diluted 5-fold, making the final compound concentration 0.05 μM-1 μM). Then, 6 μL of F. YES1 Kinase Enzyme Solution was transferred to each well, pipetted 10 times to mix, and incubated at room temperature in a shaker for 10 minutes. Next, 6 μL of E. 2.5X ATP/Substrate Mixture was transferred to each well, pipetted 10 times to mix, and centrifuged at 12,000 rpm for 5 minutes. The plate was then incubated in a shaker at room temperature for 40 minutes. After that, 15 μL of ADP-Glo Reagent, dissolved at room temperature, was added to each well, pipetted 10 times, and incubated in a shaker at room temperature for 40 minutes. Finally, 30 μL of Kinase Detection Reagent, dissolved at room temperature, was added, pipetted 10 times, incubated in a shaker at room temperature for 30 minutes. Luminescence was measured using a luminescence plate reader. Then, the background value was subtracted from all measured values, and the YES1 kinase activity at compound concentrations of 1 nM, 10 nM, and 100 nM was calculated. The measured values were calculated as percentages using the average value of the negative control. Graphs were drawn using GraphPad Prism, and the enzyme activity was calculated as a percentage of YES1 kinase inhibition at compound concentrations of 1 nM, 10 nM, and 100 nM. IC50 values were obtained using Microsoft Excel.

[1] = test system: KYSE-70 esophageal cancer cell line; assay: Cell growth inhibition of KYSE-70 (Sulforhodamine B); type: cell-based; conditions: Homo sapiens; KYSE-70, 72 hours; read-out: KYSE70 GI50
Protocol: The cell line according to the present invention was selected as KYSE-70, an esophageal cancer cell line in which YES1 is amplified. The evaluation of cell growth inhibition was performed as follows.
KYSE-70 was cultured in RPMI-1640 (Capricorn) supplemented with 10% FBS (Cellgro). The cells were seeded 24 hours prior to compound treatment, into three 96-well F-bottom clear plates (Greiner), with 7,500 cells per well in 180 μL of medium. The 10 mM compound was diluted 100-fold in medium to prepare a 100 μM compound, which was then placed into a 96-well plate and further 3-fold diluted in medium to prepare a compound plate with concentrations ranging from 0.046 μM to 100 μM. 20 μL of each compound from the drug plate was added to the cell-seeded plates to achieve final concentrations of 0.0046 μM to 10 μM. At the same time, 50 μL of 33% trichloroacetic acid was injected into one plate and the plate was fixed by incubating at 4° C. This was referred to as the Do plate. Viable cells were measured 72 hours after compound treatment by injecting 50 μL of 33% trichloroacetic acid and incubating at 4° C. for more than 1 hour to fix the cells. This was referred to as the D3 plate. After the Do plate and D3 plates were washed 5 times with sterile water, 100 μL of 0.04% Sulforhodamine B solution in 1% acetic acid was added and reacted for 1 hour to stain the cells. After staining, the plates were washed 4 times with 1% acetic acid solution and completely dried. Then, the Sulforhodamine B bound to cellular proteins was completely dissolved with 10 mM Tris base solution (pH 10.5). The absorbance was measured at a wavelength of 510 nm using a microplate reader (TECAN, sunrise microplate reader). The analysis was performed using GraphPad Prism. The average absorbance of the Do plate was set to 0%, and the average absorbance of the negative control of the D3 plate was set to 100%, from which a graph was drawn and the GI50 values were calculated. Each test was performed twice.

YES1 kinase, sequence (P07947 whole entry): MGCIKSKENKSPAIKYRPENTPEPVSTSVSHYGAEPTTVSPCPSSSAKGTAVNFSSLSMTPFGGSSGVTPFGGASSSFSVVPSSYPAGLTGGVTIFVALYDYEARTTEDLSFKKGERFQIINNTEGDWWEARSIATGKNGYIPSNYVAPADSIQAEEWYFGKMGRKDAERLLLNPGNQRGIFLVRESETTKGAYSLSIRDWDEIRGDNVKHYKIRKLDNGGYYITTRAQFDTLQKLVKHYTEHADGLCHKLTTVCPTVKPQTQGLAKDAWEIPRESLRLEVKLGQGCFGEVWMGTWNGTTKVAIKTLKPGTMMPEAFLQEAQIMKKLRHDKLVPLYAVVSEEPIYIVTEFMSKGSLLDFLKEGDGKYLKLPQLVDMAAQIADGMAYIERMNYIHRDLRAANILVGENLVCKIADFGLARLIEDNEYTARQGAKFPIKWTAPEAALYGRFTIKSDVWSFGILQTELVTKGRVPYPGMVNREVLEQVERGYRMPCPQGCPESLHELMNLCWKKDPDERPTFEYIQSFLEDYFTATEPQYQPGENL

| SMILES | inhibition at 0.01 µM (YES1 kinase) [%] | inhibition at 0.1 µM (YES1 kinase) [%] | GI50 [1] [nM] |
| --- | --- | --- | --- |
| COc1cc(-c2cc(-c3ccc(N(C)C)cc3)n3ncnc(N)c23)ccc1NC(=O)OC(C)(C)C [Example 1, tert-butyl (4-(4-amino-7-(4-(dimethylamino)phenyl)pyrrolo[2,1-f][1,2,4]triazin-5-yl)-2-methoxyphenyl)carbamate] | 17 | 31 | 1000 to 10000 |
| COc1cc(-c2cc(-c3ccc(N(C)C)cc3C)n3ncnc(N)c23)ccc1NC(=O)OC(C)(C)C [Example 2, tert-butyl (4-(4-amino-7-(4-(dimethylamino)-2-methylphenyl)pyrrolo[2,1-f][1,2,4]triazin-5-yl)-2-methoxyphenyl)carbamate] | 21 | 28 | > 10000 |
| COc1cc(-c2cc(-c3ccc(N(C)C)c(C)c3)n3ncnc(N)c23)ccc1NC(=O)OC(C)(C)C [Example 3, tert-butyl (4-(4-amino-7-(4-(dimethylamino)-3-methylphenyl)pyrrolo[2,1-f][1,2,4]triazin-5-yl)-2-methoxyphenyl)carbamate] | 44 | 49 | > 10000 |
| COc1cc(-c2cc(-c3ccc(N(C)C)c(F)c3)n3ncnc(N)c23)ccc1NC(=O)OC(C)(C)C [Example 4, tert-butyl (4-(4-amino-7-(4-(dimethylamino)-3-fluorophenyl)pyrrolo[2,1-f][1,2,4]triazin-5-yl)-2-methoxyphenyl)carbamate] | 31 | 29 | 1000 to 10000 |
| COc1cc(-c2cc(N3CCC(C(C)N)CC3)n3ncnc(N)c23)ccc1NC(=O)OC(C)(C)C (stereo not drawn) [Example 81, tert-butyl (4-(4-amino-7-(4-(1-aminoethyl)piperidin-1-yl)pyrrolo[2,1-f][1,2,4]triazin-5-yl)-2-methoxyphenyl)carbamate] | – | – | 100 to 1000 |
| CCC1(N)CCN(c2cc(-c3ccc(NC(=O)OC(C)(C)C)c(OC)c3)c3c(N)ncnn23)CC1 [Example 82, tert-butyl (4-(4-amino-7-(4-amino-4-ethylpiperidin-1-yl)pyrrolo[2,1-f][1,2,4]triazin-5-yl)-2-methoxyphenyl)carbamate] | – | – | ≤ 100 |
| CNC(=O)C1CCN(c2cc(-c3ccc(NC(=O)OC(C)(C)C)c(OC)c3)c3c(N)ncnn23)CC1 [Example 95, tert-butyl (4-(4-amino-7-(4-(methylcarbamoyl)piperidin-1-yl)pyrrolo[2,1-f][1,2,4]triazin-5-yl)-2-methoxyphenyl)carbamate] | – | – | 100 to 1000 |
| COc1cc(-c2cc(N3CCC(C)(NC(C)=O)CC3)n3ncnc(N)c23)ccc1NC(=O)OC(C)(C)C [Example 96, tert-butyl (4-(4-amino-7-(4-acetamido-4-methylpiperidin-1-yl)pyrrolo[2,1-f][1,2,4]triazin-5-yl)-2-methoxyphenyl)carbamate] | – | – | > 10000 |
| COc1cc(-c2cc(N3CCC(C(N)=O)CC3)n3ncnc(N)c23)ccc1NC(=O)OC(C)(C)C [Example 97, tert-butyl (4-(4-amino-7-(4-carbamoylpiperidin-1-yl)pyrrolo[2,1-f][1,2,4]triazin-5-yl)-2-methoxyphenyl)carbamate] | – | – | > 10000 |
| COc1cc(-c2cc(NC[C@H]3CC[C@@H](N)C3)n3ncnc(N)c23)ccc1NC(=O)OC(C)(C)C [Example 110, tert-butyl (4-(4-amino-7-((((1S,3R)-3-aminocyclopentyl)methyl)amino)pyrrolo[2,1-f][1,2,4]triazin-5-yl)-2-methoxyphenyl)carbamate] | – | – | 100 to 1000 |
| COc1cc(-c2cc(N[C@@H]3CC[C@H](CN)C3)n3ncnc(N)c23)ccc1NC(=O)OC(C)(C)C [Example 111, tert-butyl (4-(4-amino-7-(((1R,3S)-3-(aminomethyl)cyclopentyl)amino)pyrrolo[2,1-f][1,2,4]triazin-5-yl)-2-methoxyphenyl)carbamate] | – | – | > 10000 |
| COc1cc(-c2c(Cl)c(N3CCC(N(C)C)CC3)n3ncnc(N)c23)ccc1NC(=O)OC(C)(C)C [Example 124, tert-butyl (4-(4-amino-6-chloro-7-(4-(dimethylamino)piperidin-1-yl)pyrrolo[2,1-f][1,2,4]triazin-5-yl)-2-methoxyphenyl)carbamate] | – | – | ≤ 100 |
| COc1cc(-c2c(C(F)(F)F)c(N3CCC(N)CC3)n3ncnc(N)c23)ccc1NC(=O)OC(C)(C)C [Example 125, tert-butyl (4-(4-amino-7-(4-aminopiperidin-1-yl)-6-(trifluoromethyl)pyrrolo[2,1-f][1,2,4]triazin-5-yl)-2-methoxyphenyl)carbamate] | – | – | 100 to 1000 |
| COc1cc(-c2c(I)c(N3CCC(N)CC3)n3ncnc(N)c23)ccc1NC(=O)OC(C)(C)C [Example 126, tert-butyl (4-(4-amino-7-(4-aminopiperidin-1-yl)-6-iodopyrrolo[2,1-f][1,2,4]triazin-5-yl)-2-methoxyphenyl)carbamate] | – | – | 100 to 1000 |
| CNC1CCN(CCc2c(F)c(-c3ccc(NC(=O)OC(C)(C)C)c(OC)c3)c3c(N)ncnn23)CC1 [Example 130, tert-butyl (4-(4-amino-6-fluoro-7-(2-(4-(methylamino)piperidin-1-yl)ethyl)pyrrolo[2,1-f][1,2,4]triazin-5-yl)-2-methoxyphenyl)carbamate] | – | – | ≤ 100 |
| CNCCC1CCN(c2c(F)c(-c3ccc(NC(=O)OC(C)(C)C)c(OC)c3)c3c(N)ncnn23)CC1 [Example 131, tert-butyl (4-(4-amino-6-fluoro-7-(4-(2-(methylamino)ethyl)piperidin-1-yl)pyrrolo[2,1-f][1,2,4]triazin-5-yl)-2-methoxyphenyl)carbamate] | – | – | ≤ 100 |
| COc1cc(-c2cc(N3CCC(N)CC3)n3ccnc(N)c23)ccc1NC(=O)OC(C)(C)C [Example 132, tert-butyl (4-(1-amino-6-(4-aminopiperidin-1-yl)pyrrolo[1,2-a]pyrazin-8-yl)-2-methoxyphenyl)carbamate] | – | – | 100 to 1000 |
| CNC1CCN(c2cc(-c3ccc(NC(=O)OC(C)(C)C)c(OC)c3)c3c(N)nccn23)CC1 [Example 133, tert-butyl (4-(1-amino-6-(4-(methylamino)piperidin-1-yl)pyrrolo[1,2-a]pyrazin-8-yl)-2-methoxyphenyl)carbamate] | – | – | 100 to 1000 |
| COc1cc(-c2cc(N3CCC(N(C)C)CC3)n3ccnc(N)c23)ccc1NC(=O)OC(C)(C)C [Example 134, tert-butyl (4-(1-amino-6-(4-(dimethylamino)piperidin-1-yl)pyrrolo[1,2-a]pyrazin-8-yl)-2-methoxyphenyl)carbamate] | – | – | ≤ 100 |
